The values below come from patent US9820972B2, “Antiviral compounds highly effective as HCV-NS5A inhibitor” (priority 2013, dated 2017).

Where only a bound is given, the exact number is not on record here.

The experiment deals with GT-1a of NS5A Replicon. Description: HCV double reporter gene (Renilla luciferase) replicon assay, GT-1a. Type of experiment: cell-based, Hepatitis C virus (HCV). The conditions noted are these: Hepatitis C virus, GT1A, GT-1a replicon; class symbols; read-out: EC50 For GT-1a of NS5A Replicon. As to the method:
Antiviral Assay for Inhibition Activity (EC50):
The study is completed by a new constructed double reporter genes replicon assay system, the capacity of viral replicon in infected cell is determined by detecting the reporter gene Renilla luciferase. The relationship of reporter genes, HCV RNA replicon and viral proteins is well linear. 8 gradient concentrations for 2-fold dilution, 3 wells, 3 times repetition and 1 or 2 control drugs are set to finally determine EC50 of compound.
THF was distilled from sodium metal and benzophenone. DCM, pentane and hexane were distilled form calcium hydride. Special raw material and intermediate in the invention were ordered by contract synthesis from Zannan SciTech Co., Let in China, others reagents were purchased from Shanghai reagent company, Aldrich, Acros etc. As intermediates or products during the synthesis is not required for the reaction and other tests the next step, the synthesis is repeated until a sufficient number of times. The invention of the prepared compounds of […] (HCV NS5A) inhibitory activity test was performed by CRO service units such as WuXi AppTec etc.
On the technique in general: A reporter such as luciferase makes a cellular process visible.
By EC50 is commonly meant the concentration needed to bring the measured effect to its halfway point. In the case of `CC(C)(C)OC(=O)N[C@H](C(=O)N1CCC[C@H]1c1nc(-c2ccc(-c3ccc(-c4cnc([C@@H]5C[C@@H](OC(=O)N6Cc7cc8c(cc7C6)OCO8)CN5C(=O)[C@@H](NC(=O)OC(C)(C)C)C(C)(C)C)[nH]4)cc3)cc2)c[nH]1)C(C)(C)C` [Compound 6k], the EC50 is more than 50000 pM.
Turning to `COC(=O)N[C@H](C(=O)N1CC=C[C@H]1c1ncc(-c2cc3sc(-c4ccc(-c5cnc([C@@H]6CCCN6C(=O)[C@@H](NC(=O)OC)C(C)C)[nH]5)cc4)cc3s2)[nH]1)C(C)C` [Compound 6fn], the concentration giving a half-maximal response (EC50) was in the range of 1 to 999 pM.
As for `COC(=O)NC(C(=O)N1CC=C[C@H]1c1ncc(-c2ccc(-c3cc4sc(-c5cnc([C@@H]6CCCN6C(=O)[C@H](NC(=O)OC)c6ccccc6)[nH]5)cc4o3)cc2)[nH]1)c1ccccc1` (stereo partly drawn) [Compound 6fw], the EC50 lay in the range of 1 to 999 pM.
Regarding `CC(C)[C@H](NC(=O)OC1CCCC1)C(=O)N1CC=CC1c1ncc(-c2ccc(-c3ccc(-c4c[nH]c([C@@H]5C=CCN5C(=O)[C@@H](NC(=O)OC5CCCC5)C(C)C)n4)cc3)cc2)[nH]1` (stereo partly drawn) [Compound 6bf], the EC50 was more than 50000 pM.
Take `COC(=O)N[C@H](C(=O)N1CCCC1c1nc(-c2ccc(-c3ccc(-c4c[nH]c([C@@H]5COCCN5C(=O)[C@@H](NC(=O)OC)C(C)C)n4)cc3)cc2)c[nH]1)C(C)C` (stereo partly drawn) [Compound 6ag]: the EC50 was 1 to 999 pM.
Next, `COC(=O)N[C@H](C(=O)N1CN(C(=O)N2Cc3cc4c(cc3C2)OCO4)CC1c1nc(-c2ccc(-c3ccc(-c4c[nH]c([C@@H]5CCCN5C(=O)[C@@H](NC(=O)OC)C(C)C)n4)cc3)cc2)c[nH]1)C(C)C` (stereo partly drawn) [Compound 6af]: 1 to 999 pM.
In the case of `COC(=O)NC(C(=O)N1CCC[C@H]1c1nc(-c2ccc(-c3ccc(-c4c[nH]c(C5CN(C(=O)N6Cc7ccc8c(c7C6)OCO8)CN5C(=O)[C@@H](NC(=O)OC)C(C)C)n4)cc3)cc2)c[nH]1)c1ccccc1` (stereo partly drawn) [Compound 6ay], the EC50 lay in the range of 1 to 999 pM.
`COC(=O)N[C@@H](C(=O)N1CC=CC1c1nc(-c2ccc(-c3ccc(-c4c[nH]c(C5C=CCN5C(=O)[C@H](NC(=O)OC)c5ccccc5)n4)cc3)cc2)c[nH]1)c1ccccc1` (stereo partly drawn) [Compound 6ca]: the EC50 lay in the range of 1 to 999 pM.
Take `CN(C)C(=O)N[C@@H](C(=O)N1CC=CC1c1nc(-c2ccc(-c3ccc(-c4c[nH]c(C5CCCN5C(=O)[C@H](NC(=O)N(C)C)c5ccccc5)n4)cc3)cc2)c[nH]1)c1ccccc1` (stereo partly drawn) [Compound 6ce]: the concentration for a half-maximal effect (EC50) was 1 to 999 pM.
Next, `COC(=O)N[C@H](C(=O)N1CN(C(=O)N2Cc3ccc4c(c3C2)OCO4)CC1c1nc(-c2ccc(-c3ccc(-c4c[nH]c([C@@H]5CC6(CC6)CN5C(=O)[C@@H](NC(=O)OC)C(C)C)n4)cc3)cc2)c[nH]1)C(C)C` (stereo partly drawn) [Compound 6ap]: 1 to 999 pM; `CNC(=O)N[C@@H](C(=O)N1CC=CC1c1nc(-c2ccc(-c3ccc(-c4c[nH]c(C5CCCN5C(=O)[C@H](NC(=O)NC)c5ccccc5)n4)cc3)cc2)c[nH]1)c1ccccc1` (stereo partly drawn) [Compound 6cf]: 1 to 999 pM.
Regarding `CC(C)[C@H](NC(=O)OC(C)(C)C)C(=O)N1CCC[C@H]1c1nc(-c2ccc(-c3ccc(-c4cnc([C@@H]5C[C@@H](OC(=O)N6Cc7cc8c(cc7C6)OCO8)CN5C(=O)[C@@H](NC(=O)OC(C)(C)C)C(C)C)[nH]4)cc3)cc2)c[nH]1` [Compound 6j], the EC50 is more than 50000 pM.
As for `COC(=O)N[C@H](C(=O)N1CN(C(=O)N2Cc3ccccc3C2)CC1c1nc(-c2ccc(-c3ccc(-c4c[nH]c([C@@H]5CCCN5C(=O)[C@@H](NC(=O)OC)C(C)C)n4)cc3)cc2)c[nH]1)C(C)C` (stereo partly drawn) [Compound 6aq], the EC50 lay within 1 to 999 pM.
Next, `COC(=O)N[C@H](C(=O)N1CC(OC(=O)N2Cc3cc4c(cc3C2)OCO4)CC1c1nc(-c2ccc(-c3ccc(-c4c[nH]c([C@@H]5CC6(CC6)CN5C(=O)[C@@H](NC(=O)OC)C(C)C)n4)cc3)cc2)c[nH]1)C(C)C` (stereo partly drawn) [Compound 6ak]: 1 to 999 pM; `COC(=O)N[C@H](C(=O)N1CC=C[C@H]1c1ncc(-c2ccc(-c3ccc(-c4cnc([C@@H]5CCCN5C(=O)[C@@H](NC(=O)OC)C5CCCCC5)[nH]4)cc3)cc2)[nH]1)C1CCCC1` [Compound 6dn]: 1 to 999 pM.
